Format in all cases: cell-based
For one assay, the target named is T1, human TLR8 (Homo sapiens, UniProt Q9NR97).
T1 construct: host or cells: HEK-Blue cells
T1 sequence (Q9NR97 27-1041): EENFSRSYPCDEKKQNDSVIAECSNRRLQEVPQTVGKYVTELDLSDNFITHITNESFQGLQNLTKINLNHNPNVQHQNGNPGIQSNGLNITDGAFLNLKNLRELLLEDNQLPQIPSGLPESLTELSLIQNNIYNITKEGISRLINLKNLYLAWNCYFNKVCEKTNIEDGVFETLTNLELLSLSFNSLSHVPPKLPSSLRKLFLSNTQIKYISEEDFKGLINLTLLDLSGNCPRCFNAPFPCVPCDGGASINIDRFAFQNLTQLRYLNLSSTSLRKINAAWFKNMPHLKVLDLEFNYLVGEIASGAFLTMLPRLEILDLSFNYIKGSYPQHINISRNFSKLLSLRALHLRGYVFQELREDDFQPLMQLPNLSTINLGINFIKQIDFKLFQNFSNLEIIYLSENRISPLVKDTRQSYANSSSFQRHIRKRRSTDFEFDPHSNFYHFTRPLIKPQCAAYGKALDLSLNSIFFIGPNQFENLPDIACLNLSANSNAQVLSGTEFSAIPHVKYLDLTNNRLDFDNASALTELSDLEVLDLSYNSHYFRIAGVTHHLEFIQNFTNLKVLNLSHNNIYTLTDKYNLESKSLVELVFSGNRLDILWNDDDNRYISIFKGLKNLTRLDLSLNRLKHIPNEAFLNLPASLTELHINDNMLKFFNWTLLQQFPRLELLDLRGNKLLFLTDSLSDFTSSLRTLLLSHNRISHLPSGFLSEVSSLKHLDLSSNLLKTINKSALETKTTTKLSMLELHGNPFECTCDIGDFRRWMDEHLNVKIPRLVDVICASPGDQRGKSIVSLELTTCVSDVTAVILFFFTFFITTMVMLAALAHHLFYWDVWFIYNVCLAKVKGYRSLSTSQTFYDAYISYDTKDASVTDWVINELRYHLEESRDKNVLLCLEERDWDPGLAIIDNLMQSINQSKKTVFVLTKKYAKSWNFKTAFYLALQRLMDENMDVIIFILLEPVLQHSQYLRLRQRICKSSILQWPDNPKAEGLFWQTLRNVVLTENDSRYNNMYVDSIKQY
Nature of the assay: TLR8 inhibition reporter assay (HEK-Blue SEAP). The note with it: HEK-Blue cells overexpressing human TLR8, stimulated with R848 15.9 μM, 22 hour incubation. The method, boiled down:
(§1)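 HEK-Blue cells overexpressing the receptor, with an NF-κB/AP-1-driven SEAP reporter, were pre-treated with compound (0.05 nM to 50 μM) for 30 min at room temperature. Stimulation used gardiquimod 7.5 μM (TLR7), R848 15.9 μM (TLR8) or ODN2006 5 nM (TLR9), followed by 22 h at 37 °C.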
(A reporter such as luciferase makes a cellular process visible.)

The next assay deals with T2, human TLR9 (Homo sapiens, UniProt Q9NR96).
T2 construct: host or cells: HEK-Blue cells
T2 sequence (Q9NR96 26-1032): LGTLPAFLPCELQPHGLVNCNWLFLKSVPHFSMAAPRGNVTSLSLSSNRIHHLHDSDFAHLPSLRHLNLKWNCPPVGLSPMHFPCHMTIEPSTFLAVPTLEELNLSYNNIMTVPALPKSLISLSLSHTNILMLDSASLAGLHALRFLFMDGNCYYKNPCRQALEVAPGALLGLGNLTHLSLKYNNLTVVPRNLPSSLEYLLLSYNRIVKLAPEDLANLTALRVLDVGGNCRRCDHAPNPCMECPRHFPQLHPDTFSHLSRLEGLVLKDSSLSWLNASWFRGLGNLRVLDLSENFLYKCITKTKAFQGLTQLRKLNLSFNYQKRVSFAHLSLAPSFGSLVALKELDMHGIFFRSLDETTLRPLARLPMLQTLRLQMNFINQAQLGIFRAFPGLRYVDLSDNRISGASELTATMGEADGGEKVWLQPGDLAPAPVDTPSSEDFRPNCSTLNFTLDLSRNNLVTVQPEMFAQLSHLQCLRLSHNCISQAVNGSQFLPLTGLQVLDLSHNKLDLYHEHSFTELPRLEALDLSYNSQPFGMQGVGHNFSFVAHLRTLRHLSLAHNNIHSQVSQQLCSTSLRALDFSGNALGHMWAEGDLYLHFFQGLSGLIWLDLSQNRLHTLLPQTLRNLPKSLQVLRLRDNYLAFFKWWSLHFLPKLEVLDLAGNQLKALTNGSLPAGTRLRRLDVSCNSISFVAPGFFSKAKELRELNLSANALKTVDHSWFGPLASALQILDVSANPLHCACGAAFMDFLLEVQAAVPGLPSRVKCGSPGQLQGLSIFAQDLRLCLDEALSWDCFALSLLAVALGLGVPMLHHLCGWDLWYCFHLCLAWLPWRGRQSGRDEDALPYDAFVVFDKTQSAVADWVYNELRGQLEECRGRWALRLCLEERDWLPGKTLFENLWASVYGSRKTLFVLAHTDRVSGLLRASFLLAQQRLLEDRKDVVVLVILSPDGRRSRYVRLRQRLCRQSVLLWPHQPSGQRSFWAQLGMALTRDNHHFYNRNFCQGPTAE
In words: TLR9 inhibition reporter assay (HEK-Blue SEAP). The note with it: HEK-Blue cells overexpressing human TLR9, stimulated with ODN2006 5 nM, 22 hour incubation. An outline of the steps:
as §1

The target of the next assay is T3, human TLR7 (Homo sapiens, UniProt Q9NYK1).
T3 construct: host or cells: HEK-Blue cells
T3 sequence (Q9NYK1 27-1049): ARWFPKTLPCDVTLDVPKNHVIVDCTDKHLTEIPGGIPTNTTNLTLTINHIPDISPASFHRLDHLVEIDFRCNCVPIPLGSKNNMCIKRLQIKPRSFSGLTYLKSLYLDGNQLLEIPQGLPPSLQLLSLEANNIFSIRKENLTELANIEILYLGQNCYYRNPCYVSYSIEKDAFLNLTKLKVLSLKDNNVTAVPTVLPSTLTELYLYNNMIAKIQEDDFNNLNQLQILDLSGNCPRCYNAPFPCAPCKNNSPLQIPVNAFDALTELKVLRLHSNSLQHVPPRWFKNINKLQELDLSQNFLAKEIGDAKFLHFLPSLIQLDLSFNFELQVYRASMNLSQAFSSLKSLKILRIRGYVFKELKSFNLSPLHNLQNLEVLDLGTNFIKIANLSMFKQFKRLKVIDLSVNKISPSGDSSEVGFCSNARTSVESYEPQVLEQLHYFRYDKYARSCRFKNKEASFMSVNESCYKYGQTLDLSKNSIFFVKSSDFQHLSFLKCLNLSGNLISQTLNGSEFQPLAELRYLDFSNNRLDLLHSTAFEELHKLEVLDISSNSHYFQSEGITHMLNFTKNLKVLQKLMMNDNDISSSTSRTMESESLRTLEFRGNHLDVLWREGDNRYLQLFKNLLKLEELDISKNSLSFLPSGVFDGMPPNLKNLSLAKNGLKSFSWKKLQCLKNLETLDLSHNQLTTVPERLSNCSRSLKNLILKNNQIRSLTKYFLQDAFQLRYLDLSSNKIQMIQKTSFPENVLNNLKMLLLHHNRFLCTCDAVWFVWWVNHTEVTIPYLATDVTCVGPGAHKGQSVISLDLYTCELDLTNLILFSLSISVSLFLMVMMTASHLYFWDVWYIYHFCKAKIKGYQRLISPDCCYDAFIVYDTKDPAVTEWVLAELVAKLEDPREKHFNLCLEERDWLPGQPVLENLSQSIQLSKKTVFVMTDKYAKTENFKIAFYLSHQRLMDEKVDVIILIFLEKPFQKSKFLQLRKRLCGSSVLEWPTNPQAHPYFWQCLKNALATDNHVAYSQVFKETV
Nature of the assay: TLR7 inhibition reporter assay (HEK-Blue SEAP). Particulars: HEK-Blue cells overexpressing human TLR7, stimulated with gardiquimod 7.5 μM, 22 hour incubation. An outline of the steps:
as §1

The IC50 is the concentration that gives 50% inhibition.

In the case of `Cc1cc(-c2cc3[nH]nc(C4CCC(N5CC(F)C5)CC4)c3cc2C(C)C)cn2ncnc12` (stereo not drawn) [Example 152, 6-(3-(4-(3-fluoroazetidin-1-yl)cyclohexyl)-5-isopropyl-1H-indazol-6-yl)-8-methyl-[1,2,4]triazolo[1,5-a]pyridine], the IC50 at human TLR8 is 0.3 nM; against human TLR9 it was 13000 nM; at human TLR7, 1.3 nM.
For the compound `Cc1cc(-c2cc3[nH]nc(C4CCC(N5CC(C)(O)C5)CC4)c3cc2C(C)C)cn2ncnc12` (stereo not drawn) [Example 153, 1-(4-(5-isopropyl-6-(8-methyl-[1,2,4]triazolo[1,5-a]pyridin-6-yl)-1H-indazol-3-yl)cyclohexyl)-3-methylazetidin-3-01], the IC50 against human TLR8 was 0.6 nM; against human TLR9 it was 7450 nM; on human TLR7 it was 1.1 nM.
As to `Cc1cc(-c2cc3[nH]nc(C4CCC(N5CC(C)(O)C5)CC4)c3cc2C(C)C)cn2ncnc12` (stereo not drawn) [Example 154, 1-(4-(5-isopropyl-6-(8-methyl-[1,2,4]triazolo[1,5-a]pyridin-6-yl)-1H-indazol-3-yl)cyclohexyl)-3-methylazetidin-3-01], the half-inhibitory concentration (IC50) was determined as 0.2 nM at human TLR8, 15900 nM against human TLR9 and 0.5 nM against human TLR7.
For `Cc1cc(-c2cc3[nH]nc(C4CCC(N5CC6(CCO6)C5)CC4)c3cc2C(C)C)cn2ncnc12` (stereo not drawn) [Example 155, 6-(4-(5-isopropyl-6-(8-methyl-[1,2,4]triazolo[1,5-a]pyridin-6-yl)-1H-indazol-3-yl)cyclohexyl)-1-oxa-6-azaspiro[3.3]heptane], in that order: 0.2 nM, 7560 nM and 1.8 nM.
For `Cc1cc(-c2cc3[nH]nc(C4CCC(N5CC6(CCO6)C5)CC4)c3cc2C(C)C)cn2ncnc12` (stereo not drawn) [Example 156, 6-(4-(5-isopropyl-6-(8-methyl-[1,2,4]triazolo[1,5-a]pyridin-6-yl)-1H-indazol-3-yl)cyclohexyl)-1-oxa-6-azaspiro[3.3]heptane], in that order: 0.1 nM, 6110 nM and 0.8 nM.
For `Cc1cc(-c2cc3[nH]nc(C4CCC(N5CC6(CCOC6)C5)CC4)c3cc2C(C)C)cn2ncnc12` (stereo not drawn) [Example 157, 2-(4-(5-isopropyl-6-(8-methyl-[1,2,4]triazolo[1,5-a]pyridin-6-yl)-1H-indazol-3-yl)cyclohexyl)-6-oxa-2-azaspiro[3.4]octane], in that order: 0.4 nM, 6730 nM and 0.5 nM.
Consider `Cc1cc(-c2cc3[nH]nc(C4CCC(N5CC6(CCOC6)C5)CC4)c3cc2C(C)C)cn2ncnc12` (stereo not drawn) [Example 158, 2-(4-(5-isopropyl-6-(8-methyl-[1,2,4]triazolo[1,5-a]pyridin-6-yl)-1H-indazol-3-yl)cyclohexyl)-6-oxa-2-azaspiro[3.4]octane], for which the values for the IC50 against human TLR8, on human TLR9 and on human TLR7 were 0.2 nM, 9850 nM and 0.5 nM, respectively.
For `Cc1cc(-c2cc3[nH]nc(C4CCC(N5CCC(F)C5)CC4)c3cc2C(C)C)cn2ncnc12` (stereo not drawn) [Example 163, 6-(3-(4-(3-fluoropyrrolidin-1-yl)cyclohexyl)-5-isopropyl-1H-indazol-6-yl)-8-methyl-[1,2,4] triazolo[1,5-a]pyridine], in that order: 0.1 nM, 6230 nM and 0.9 nM.
For `Cc1cc(-c2cc3[nH]nc(C4CCC(N5CCC(F)C5)CC4)c3cc2C(C)C)cn2ncnc12` (stereo not drawn) [Example 164, 6-(3-(4-(3-fluoropyrrolidin-1-yl)cyclohexyl)-5-isopropyl-1H-indazol-6-yl)-8-methyl-[1,2,4] triazolo[1,5-a]pyridine], in that order: 0.1 nM, 6450 nM and 1.5 nM.
With `Cc1cc2c(OC3CCNCC3)n[nH]c2cc1-c1cc(C)c2ncnn2c1` [Example 167, 8-methyl-6-(5-methyl-3-(piperidin-4-yloxy)-1H-indazol-6-yl)-[1,2,4]triazolo[1,5-a]pyridine], the values for the concentration for half-maximal inhibition (IC50) at human TLR8, against human TLR9 and against human TLR7 were 0.2 nM, 631 nM and 5.4 nM, respectively.
